In patent US20080199413A1, “Novel Use of Organic Compounds” (priority 2005, published 2008):

Test system: human dermal fibroblasts
Experiment: UV-A radiation-induced mtDNA common deletion in human dermal fibroblasts (nested PCR)
Format: cell-based
Conditions: for Protection of fibroblasts against the UV-A radiation-induced generation of the common deletion (in words): overall finding of 3 experiments; for Prevalence of mtDNA deletion relative to untreated cells: representative experiment
Text: Sunlight (Systems Dr. […]) irradiation device. […] The cells were then harvested by trypsinisation. […] Dermatol. […] (7293-7316); [NT] (13928-13905); [NT] (7901-7920); [NT] (13650-13631); [NT] (219-238); C2, [NT]

[1] = UV-A radiation + 0.25 μM carotenoid, after 1 week
[2] = UV-A radiation + 0.5 μM carotenoid, after 1 week
[3] = UV-A radiation + 1.0 μM carotenoid, after 1 week
[4] = UV-A radiation + 2.0 μM carotenoid, after 1 week
[5] = UV-A radiation + 3.0 μM carotenoid, after 1 week
[6] = all doses tested (0.25-3 μM), after 1 week

CC1=C(/C=C/C(C)=C/C=C/C(C)=C/C=C/C=C(C)/C=C/C=C(C)/C=C/C2=C(C)C[C@@H](O)CC2(C)C)C(C)(C)C[C@H](O)C1 [Zeaxanthin, zeaxanthin, reference compound]
Protection of fibroblasts against the UV-A radiation-induced generation of the common deletion (in words): no effect

CC1=C[C@H](O)CC(C)(C)[C@H]1/C=C/C(C)=C/C=C/C(C)=C/C=C/C=C(C)/C=C/C=C(C)/C=C/C1=C(C)C[C@@H](O)CC1(C)C [lutein]
Prevalence of mtDNA deletion relative to untreated cells [1]: 0.98 | Prevalence of mtDNA deletion relative to untreated cells [2]: 0.27 | Prevalence of mtDNA deletion relative to untreated cells [3]: 0.71 | Prevalence of mtDNA deletion relative to untreated cells [4]: 0.37 | Prevalence of mtDNA deletion relative to untreated cells [5]: 0.59 | Effect on UV-A radiation-induced formation of the common deletion (in words) [6]: completely prevented | Protection of fibroblasts against the UV-A radiation-induced generation of the common deletion (in words): found to protect

CC(C)=CCC/C(C)=C/C=C/C(C)=C/C=C/C(C)=C/C=C/C=C(C)/C=C/C=C(C)/C=C/C=C(\C)CCC=C(C)C [lycopene]
Prevalence of mtDNA deletion relative to untreated cells [1]: 2.90 | Prevalence of mtDNA deletion relative to untreated cells [2]: 1.22 | Prevalence of mtDNA deletion relative to untreated cells [3]: 1.53 | Prevalence of mtDNA deletion relative to untreated cells [4]: 1.53 | Prevalence of mtDNA deletion relative to untreated cells [5]: 2.52 | Effect on UV-A radiation-induced formation of the common deletion (in words) [6]: inhibits | Effect on UV-A radiation-induced formation of the common deletion (in words) (at 0.5, 1 μM and 2 μM, after 1 week): Complete protection | Protection of fibroblasts against the UV-A radiation-induced generation of the common deletion (in words): consistently found to protect

CC1=C(/C=C/C(C)=C/C=C/C(C)=C/C=C/C=C(C)/C=C/C=C(C)/C=C/C2=C(C)C[C@@H](O)CC2(C)C)C(C)(C)CCC1 [β-cryptoxanthin]
Prevalence of mtDNA deletion relative to untreated cells (UV-A radiation + 0.1 μM carotenoid, after 2 weeks): 0.80 | Prevalence of mtDNA deletion relative to untreated cells (UV-A radiation + 0.25 μM carotenoid, after 2 weeks): 0.64 | Prevalence of mtDNA deletion relative to untreated cells (UV-A radiation + 0.5 μM carotenoid, after 2 weeks): 0.25 | Prevalence of mtDNA deletion relative to untreated cells (UV-A radiation + 1.0 μM carotenoid, after 2 weeks): 0.62 | Prevalence of mtDNA deletion relative to untreated cells (UV-A radiation + 2.0 μM carotenoid, after 2 weeks): 0.25 | Prevalence of mtDNA deletion relative to untreated cells (UV-A radiation + 3.0 μM carotenoid, after 2 weeks): 1.03 | Effect on UV-A radiation-induced induction of the common deletion (in words) (all concentrations tested, after 2 weeks): abrogated
